Measurements published in US4732978A, “Novel substituted naphthyloxymethyl quinoline derivatives as anti-inflammatory and antiallergy agents” (American Home Products Corporation, priority 1986, dated 1988).
pIC50: −log10 of the molar value.

Tests used:
[1] = system: 5-HETE synthesis by rat glycogen-elicited polymorphonuclear leukocytes; experiment: Inhibition of 5-HETE synthesis by rat glycogen-elicited polymorphonuclear leukocytes (lipoxygenase); format: cell-based, rat (female Wistar); details: Leukocyte, rat PMN, A23187 stimulated; for inhibition at 50 µM: read-out: >50% Inhibitory at 50 μm (5-HETE synthesis)
Procedure: The assay of this Example measures the ability of the compounds of the invention to inhibit the synthesis of 5-HETE by rat glycogen-elicited polymorphonuclear leukocytes.
(§1) Peritoneal PMN are obtained from female Wistar rats (150-250 g) that received an i.p. injection of 6% glycogen (10 mL). After 24 hours, rats are killed by CO2 asphyxiation and peritoneal cells are harvested by peritoneal lavage using Ca^++ and Mg^++ free Hanks' balanced salt solution (HBSS). The peritoneal exudate is centrifuged at 400 g for 10 minutes. After centrifugation, the lavaged fluid is removed and the cell pellet is resuspended in HBSS containing Ca^++ and Mg^++ and 10 mM L-cysteine at a concentration of 2×10^7 cells/mL. To 1 mL portions of cell suspension, test drugs or vehicle are added and incubated at 37° C. for 10 minutes. Following this preincubation, the calcium ionophore (10 μM), A23187, is added together with 0.5 μCi [^14 C] arachidonic acid and further incubated for 10 minutes. The reaction is stopped by the addition of ice cold water (3 mL) and acidifying to pH 3.5. Lipoxygenase products are then extracted twice into diethyl ether. The pooled ether extracts are evaporated to dryness under nitrogen and the residue is redissolved in a small volume of methanol and spotted on aluminum backed pre-coated thin layer chromatographic plates. The samples are then co-chromatographed with authentic reference 5-HETE, in the solvent system--hexane:ether:acetic acid (50:50:3). After chromatography, the areas associated with 5-HETE standard are identified by autoradiography, cut out and quantitated by liquid scintillation.
The compounds of this invention are tested in this assay at a level of 50 μm, unless otherwise noted. The results are summarized in Table 1, where those compounds having an inhibition of >50% are designated by a "+". Some results are express as an IC50 value.

[2] = system: AA-induced mouse ear edema; experiment: Arachidonic acid (AA)-induced murine ear edema test, topical; format: in vivo, mouse (Swiss Webster female); details: for % Change from Control, TOPICAL, AA: AA 1 mg/ear (footnote a), * = <0.05
Text: (§2) The ability of the compounds of the invention to inhibit the lipoxygenase and/or cyclooxygenase pathways of arachidonic acid is examined in the in vivo arachidonic acid (AA)-/12-O-tetradecanoylphorbol acetate (TPA)-induced murine ear edema test.
(§3) According to this test, Swiss Webster female mice (Buckshire), approximately 8 weeks old, are placed into plastic boxes in groups of six. Eight groups of mice receive AA topically on the right ear, and another 8 groups receive TPA topically on the right ear. AA and TPA are dissolved in acetone at concentrations of 100 mg/mL and 100 μg/mL respectively. The phlogistics are applied to the right ear by the means of an automatic pipet. Volumes of 10 μL are applied to the inner and outer surfaces of the ear. […] The left ear (control) receives acetone delivered in the same manner. Oral and topical dosing regimens are as follows: (1) drugs are given 30 minutes prior to AA treatment, and (2) drugs are given 30 minutes after treatment with TPA.
(§4) Measurements are taken with Oditest calipers, 0-10 mm with 0.01 graduations. The right and left ears are measured after 1 hour AA-induced inflammation and 4 hours after TPA-induced inflammation.
(§5) The difference between right and left ear thickness is calculated and the significance is determined by a one way analysis of variance with Dunnett's comparisons to control (P=0.05). Drug effects are expressed as a percent change from control values: [formula]
(§6) The ED50 values are also given for these compounds where this has been determined.

[3] = system: TPA-induced mouse ear edema; experiment: 12-O-tetradecanoylphorbol acetate (TPA)-induced murine ear edema test, topical; format: in vivo, mouse (Swiss Webster female); details: for % Change from Control, TOPICAL, TPA: TPA 10 μg/ear (footnote b), * = <0.05
Text: as §2, §3, §4, §5, §6

[4] = system: ovalbumin induced bronchospasm; experiment: Inhibition of ovalbumin-induced bronchospasm mediated by endogenous mediators in sensitized guinea pigs; format: in vivo, guinea pig (male Hartley); details: 50 mg/kg intraduodenal, 10 minutes before intravenous ovalbumin challenge
Procedure: The assay of this Example measures the in vivo ability of the compounds of the invention to inhibit the bronchospasm induced in guinea pigs by endogenous mediators of the bronchoconstriction.
Male Hartley strain guinea pigs weighing 250-350 g are sensitized to chicken ovalbumin (OA) (10 mg i.p.) on days 1 and 3 and used starting on day 26. The animals are anesthetized with pentobarbital sodium (50 mg/kg, i.p.), bilateral vagotomy is performed, and the jugular vein is cannulated for injection of drugs and the carotid artery for monitoring blood pressure. The trachea is cannulated for artificial ventilation by a miniature Starling pump and for indirect measurement of respiratory volume changes as described, infra. Succinylcholine (2 mg/kg, i.v.) is administered to arrest spontaneous respiration. […]
Respiratory volume changes are determined by a calibrated piston whose travel is recorded, via a linear transducer, on a Beckman Dynograph recorder. Maximal bronchoconstrictor volume is determined by clamping off the trachea at the end of the experiment. Overflow volumes at minutes 1, 3 and 5 are obtained from the recorded charts.
Area under the volume overflow curve (AUC) is estimated, using the overflow values at 1, 3 and 5 minutes, and expressed as a percentage of the maximal overflow AUC (equation 1): [formula] […]

[5] = system: synthesis of cyclooxygenase oxidation product TxB2; experiment: Inhibition of synthesis of cyclooxygenase product TxB2 (rat polymorphonuclear leukocytes, procedure of Example 17); format: cell-based, rat (female Wistar); details: Leukocyte, rat PMN; for pIC50: TxA2
Procedure: as §1
(§7) The procedure of Example 17 is also employed for the determination of the ability of the compounds of the invention to inhibit the synthesis of the arachidonic acid cyclooxygenase oxidation products TxB2 and PGE2.
In this assay, the procedure of Example 17 is carried out as described. However, in order to determine cyclooxygenase activity, the samples are cochromatographed with authentic reference TxB2 and PGE2 in the solvent system ethyl acetate:formic acid (80:1) and the upper phase of ethyl acetate:isoctane:acetic acid:water (110:50:20:100). After chromatography, the areas associated with TxB2 and PGE2 standards are identified by autoradiography, cut out and quantitated by liquid scintillation techniques.
(§8) The results are calculated as in Example 17.

[6] = system: synthesis of cyclooxygenase oxidation product PGE2; experiment: Inhibition of synthesis of cyclooxygenase product PGE2 (rat polymorphonuclear leukocytes, procedure of Example 17); format: cell-based, rat (female Wistar); details: Leukocyte; rat PMN
Procedure: as §1, §7
In this assay, the procedure of Example 17 is carried out as described. […] After chromatography, the areas associated with TxB2 and PGE2 standards are identified by autoradiography, cut out and quantitated by liquid scintillation techniques.
as §8

Row | pIC50 [6] | pIC50 [1] | pIC50 [5] | Structure (SMILES) | inhibition at 50 µM [1] [%] | TOPICAL ED50, AA [2] [mg/ear] | % Change from Control, TOPICAL, AA [2] [%] | TOPICAL ED50, TPA [3] [mg/ear] | % Change from Control, TOPICAL, TPA [3] [%] | % Inhibition of MAX AUC [4] [%] | inhibition at 50 µM [5] [%]
1 |  |  |  | Brc1cccc(OCc2ccc3ccccc3n2)c1 [Example 1, 2-[(3-Bromophenoxy)methyl]quinoline] | > 50 | 2.0 | -43 | 0.7 | -62 | > 50 | > 50
2 |  |  |  | Fc1ccccc1OCc1ccc2ccccc2n1 [Example 2, 2-[(2-Fluorophenoxy)methyl]quinoline] | > 50 |  | -40 |  | -42 |  | > 50
3 | < 4.00 | 5.82 | 5.14 | Clc1cccc(OCc2ccc3ccccc3n2)c1 [Example 3, 2-[(3-Chlorophenoxy)methyl]quinoline] | > 50 | 0.3 | -67 |  | -60 |  | > 50
4 |  |  |  | Clc1ccc(OCc2ccc3ccccc3n2)cc1 [Example 4, 2-[(4-Chlorophenoxy)methyl]quinoline] | > 50 | 1.3 | -43 |  | -45 |  | > 50
5 | < 4.00 | 5.00 | 5.49 | Fc1cccc(OCc2ccc3ccccc3n2)c1 [Example 5, 2-[(3-Fluorophenoxy)methyl]quinoline] | > 50 | 0.3 | -63 | 1.6 | -47 |  | > 50
6 |  |  |  | Brc1ccc(OCc2ccc3ccccc3n2)cc1 [Example 6, 2-[(4-Bromophenoxy)methyl]quinoline] | > 50 |  | -36 |  | -22 |  | > 50
7 |  |  |  | Clc1ccc(OCc2ccc3ccccc3n2)cc1Cl [Example 7, 2-[(3,4-Dichlorophenoxy)methyl]quinoline] | > 50 |  | -54 |  | -21 |  | > 50
8 |  |  |  | Brc1ccccc1OCc1ccc2ccccc2n1 [Example 8, 2-[(2-Bromophenoxy)methyl]quinoline] | > 50 |  | -32 |  | -14 |  | > 50
9 |  |  |  | c1ccc2cc(OCc3ccc4ccccc4n3)ccc2c1 [Example 9, 2-[(2-Naphthalenyloxy)methyl]quinoline] | > 50 |  |  |  |  |  | > 50
10 | < 4.00 | 6.40 | 5.20 | c1ccc2nc(COc3cccc4ccccc34)ccc2c1 [Example 10, 2-[(1-Naphthalenyloxy)methyl]quinoline] | > 50 | 0.3 |  | 0.7 |  |  | > 50
11 |  |  |  | Brc1c(OCc2ccc3ccccc3n2)ccc2ccccc12 [Example 11, 2-[(1-Bromo-2-naphthalenyloxy)methyl]quinoline] | > 50 |  |  |  |  |  | > 50
12 |  |  |  | Brc1ccc(SCc2nc3ccccc3s2)cc1 [Example 13] | > 50 |  |  |  |  |  | > 50
13 |  |  |  | Brc1cccc(SCc2nc3ccccc3s2)c1 [Example 14] | > 50 |  |  |  |  |  | > 50
14 |  |  |  | c1ccc2nc(COc3cccc4cccnc34)ccc2c1 [Example 15, 2-[(8-quinolinyloxy)-methyl]quinoline] | > 50 |  | 52 |  | 53 |  | 
15 |  |  |  | FC(F)(F)c1cccc(OCc2ccc3ccccc3n2)c1 [Example 16, 2-[[3-(trifluoromethyl)phenoxy]methyl]quinoline] | > 50 |  | 35 |  | 22 |  | 
